Patent US20070128136A1, “Terrein compound having melanin biosynthesis inhibitors and its preparation” (priority 2003, published 2007)

How the values were obtained:
Type in all cases: cell-based
Mel-Ab melanin cells [1] = assay: Melanin biosynthesis inhibiting effect in Mel-Ab melanin cells; conditions: for melanin biosynthesis inhibition: terrein 0-100 uM, kojic acid 0-100 uM, FIG. 5 and FIG. 6
Experimental: Particularly, Mel-Ab melanin cells were cultured in DMEM medium supplemented with 10% fetal bovine serum (FBS), 100 nM phobol 12-myristate 13-acetate, 1 nM cholera toxin, 50 ug/ml of streptomycin and 50 U/ml of penicillin under the condition of 5% CO2, 37° C. Mel-Ab melanin cells cultured in the above experimental example 1 were treated respectively with terrein compound and kojic acid, a conventional whitening agent, at different concentrations (0, 10, 25, 50, 75 and 100 uM of terrein compound and 0, 1, 10 and 100 uM of kojic acid). Both Mel-Ab melanin cells cultured under general culture conditions and Mel-Ab melanin cells treated with terrein compound of the present invention were observed under a microscope for comparison, and the result was shown in FIG. 7.

[2] = system: ERK (extracellular signal-regulated kinase); assay: ERK activation in Mel-Ab melanin cells by Western blot; conditions: 100 uM
Experimental: (§1) In order to investigate melanin biosynthesis inhibiting mechanism of terrein compound of the present invention, Mel-Ab melanin cells cultured above were treated with 100 uM of terrein compound. And at each time point of 0, 2, 10, 30, 60, 180, and 360 minute, ERK (extracellular signal-regulated kinase) activation and MITF (microphthalmia-associated transcription factor) decomposition were investigated by Western blot.

[3] = system: MITF (microphthalmia-associated transcription factor); assay: MITF decomposition in Mel-Ab melanin cells by Western blot; conditions: 100 uM, with ERK activation
Experimental: as §1

Mel-Ab melanin cells [4] = assay: Cytotoxicity test, crystal violet staining of Mel-Ab cells; conditions: 24 hours, under the concentration of 100 uM, FIG. 4
Experimental: In order to investigate cytotoxicity of terrein compound of the present invention, Mel-Ab cells were treated with the terrein compound.
Particularly, Mel-Ab melanin cells were cultured in DMEM medium supplemented with 10% fetal bovine serum (FBS), 100 nM phobol 12-myristate 13-acetate, 1 nM cholera toxin, 50 ug/ml of streptomycin and 50 U/ml of penicillin under the condition of 5% CO2, 37° C.
Mel-Ab melanin cells cultured above were treated with terrein compound at different concentrations (0, 10, 25, 50, 75, 100 uM) for 24 hours, followed by further culture. Then, medium was removed. Cells were stained with 0.5 ml of 0.1% crystal violet and Mel-Ab melanin cells were checked. Crystal violet was removed by washing several times. Crystal violet remaining in cells was extracted by using 1.0 ml of 95% ethanol. OD590 of the extracted crystal violet was measured by ELISA reader in order to investigate vitality of cells.

Structure (SMILES)	melanin biosynthesis inhibition (Mel-Ab melanin cells [1])	melanin biosynthesis inhibiting effect relative to kojic acid (Mel-Ab melanin cells [1]; both at 10 uM) [times]	dark melanin of cells observed under a microscope (Mel-Ab melanin cells [1]; dose-dependently, FIG. 7)	duration of ERK activation [2] [h]	time from treatment to ERK1 and ERK2 activation [2] [min]	ERK1 and ERK2 activation ([2]; FIG. 8)	expression of MITF [3]	cytotoxicity (vitality of cells, OD590 of crystal violet) (Mel-Ab melanin cells [4])
O=c1cc(CO)occ1O [kojic acid, reference compound]	inhibited melanin biosynthesis dose-dependently	–	–	–	–	–	–	–
C/C=C/C1=CC(=O)C(O)C1O (stereo not drawn) [terrein compound, 4,5-dihydroxy-3-propenyl-2-cyclopenten-1-one]	inhibited melanin biosynthesis dose-dependently	10	clearly decreased	≥ 6	2 to 10	activated fast	decreased	no cytotoxicity
